Literature values as cited in US7550162B2, “Labiatae herb extracts and hop extracts for extending the color life and inhibiting the growth of microorganisms in fresh meat, fish and poultry” (Kalsec Incorporated, priority 2001, dated 2009).
Values after ≈ are worked out from the molar mass of the structure shown. Where two headings read alike, the source gives them in different places.

Columns and labels:
Listeria = settings: soy broth
Gram-positive organisms = settings: value also given in ppm
Gram positive organisms = settings: in culture

SMILES | concentration inhibiting Listeria (Listeria) | Minimum inhibitory concentration (Gram-positive organisms) | further results
CC(C)CCC(=O)C1(O)C(O)=C(C(=O)CC(C)C)C(=O)C1CCC(C)C (centres unmarked) [Tetrahydroisohumulone, tetrahydroisohumulone] | 6-18 ppm |  | 
CC(C)=CCC1=C(O)C(C(=O)CC(C)C)=C(O)C1O (centres unmarked) [humulinic acid] |  | 250 µg/mL (≈ 939 µM) | 
CC(C)=CCC1=C(O)C(C(=O)CC(C)C)=C(O)C(CC=C(C)C)(CC=C(C)C)C1=O [Lupulone (beta acids), Lupulone] |  | 1 µg/mL (≈ 2.41 µM) | MIC (Gram positive organisms): 1-10 ppm
CC(C)=CCC(=O)C1(O)C(O)=C(C(=O)CC(C)C)C(=O)C1CC=C(C)C (centres unmarked) [isohumulone] |  | 25 µg/mL (≈ 69 µM) | relative activity (beer spoilage organisms; pH 3.8): 226; relative activity (beer spoilage organisms; pH 4.6): 42
CC(C)CCC1=C(O)C(C(=O)C(C)C)=C(O)C(CCC(C)C)(CCC(C)C)C1=O [hexahydrocolulupone, hexahydrocolupulone] | 0.4 ppm |  | 
